The values that follow come from patent US20230148070A1, “AMINO ACID DERIVATIVES AND THEIR USE AS FLAVOR MODIFIERS” (Firmenich SA, priority 2020, published 2023).

The nature of assay [1]: Sensory Testing 1: Savory Model (trained panel, umami and saltiness). In kind it is in vivo. Particulars: 10 ppm; panel of 20-22 trained panelists; score on scale -5 (strong masking) to 5 (strong enhancing), 0 = reference water solution with 0.25% NaCl and 0.05% MSG. The method, then:
Each of Compound 101, Compound 102, Compound 103, Compound 104, Compound 105, Compound 106, Compound 107, Compound 108 and Compound 109 was tested for taste properties, particularly umami and saltiness. A panel of 20-22 trained panelists evaluated the samples of each test compound at 10 ppm for umami taste properties and saltiness taste properties, and scored the solutions on a scale ranging from −5 to 5 (with −5 denoting a strong masking effect, and 5 denoting a strong enhancing effect, and 0 representing the intensity of a reference water solution containing 0.25% sodium chloride (NaCl) and 0.05% monosodium glutamate (MSG), respectively).

Assay [2] in a line: Sensory Testing 2: Chicken Soup (expert panel, salt, umami, meaty, kokumi). In kind it is in vivo. Particulars: 10 ppm, panel of 8 experts, score on scale -5 to 5, 0 = reference water solution with 1.26% Chicken base, 0.7% NaCl, 0.04% MSG; for Mouth-coating / Round / Thick: kokumi. Here is the method:
Each of Compound 103, Compound 104 and Compound 109 was tested for flavor, taste and mouthfeel properties, particularly kokumi. A panel of 8 experts evaluated the samples of each test compound at 10 ppm for salt, umami, meaty, and kokumi (mouthcoating, round and thick) properties, and scored the solutions on a scale ranging from −5 to 5 (with −5 denoting a strong masking effect, and 5 denoting a strong enhancing effect, and 0 representing the intensity of a reference water solution containing 1.26% Chicken base, 0.7% NaCl, and 0.04% MSG, respectively).

Regarding `CC(C)NC(=O)CCC(N)C(=O)O` (stereo not drawn) [Compound 101], in assay [1], the Saltiness is 0.79 and the Umami is recorded as 0.06.

Take `NC(CCC(=O)NCCO)C(=O)O` (stereo not drawn) [Compound 102]: in assay [1], the Saltiness was found to be 0.44 and the Umami came to 0.46.

Take `NC(CCC(=O)NCCCC(=O)O)C(=O)O` (stereo not drawn) [Compound 103]: in assay [2], the Meaty was 0.67, the Saltiness came out at 0.67, the Umami came out at 0.83 and the Mouth-coating came to 1.08. Also, in assay [2], the Round was 0.92 and the Thick turned out to be 0.92. Besides, in assay [1], the Saltiness is reported as 0.64 and the Umami came out at 0.73.

With `C[C@H](CNC(=O)CC[C@H](N)C(=O)O)C(=O)O` [Compound 104], in assay [2], the Meaty is reported as 0.42, the Saltiness came to 0.75, the Umami was 0.75 and the Mouth-coating was 0.75. In assay [2], the Round amounted to 0.50 and the Thick is recorded as 0.58. In addition, in assay [1], the Saltiness came out at 0.96 and the Umami came to 0.32.

In the case of `COc1ccc(CNC(=O)CCC(N)C(=O)O)cc1` (stereo not drawn) [Compound 105], in assay [1], the Saltiness came out at 0.38 and the Umami was 0.76.

Regarding `NC(CCC(=O)NCCc1ccc(O)cc1)C(=O)O` (stereo not drawn) [Compound 106], in assay [1], the Saltiness is on record as 0.33 and the Umami is recorded as 0.51.

As for `N=C(N)NCCCC(NC(=O)CCC(=O)O)C(=O)O` (stereo not drawn) [Compound 107], in assay [1], the Saltiness was 0.61 and the Umami is 0.66.

With `N=C(N)NCCCC(NC(=O)c1ccc(O)cc1)C(=O)O` (stereo not drawn) [Compound 108], in assay [1], the Saltiness was found to be 0.49 and the Umami turned out to be 0.47.

For the molecule `C[C@@H](CNC(=O)CC[C@H](N)C(=O)O)C(=O)O` [Compound 109], in assay [2], the Meaty worked out at 0, the Saltiness was 0.92, the Umami amounted to 0.58 and the Mouth-coating was found to be 0.83. In addition, in assay [2], the Round is 0.58 and the Thick is reported as 0.83. Further, in assay [1], the Saltiness is 0.58 and the Umami was found to be 0.50.
